Source: US5610297A, “Peptides ketoamides” (Georgia Tech Research Corp., priority 1995, dated 1997)

Tests used:
[1] = biological target: T1, Calpain I from human erythrocytes (Homo sapiens, UniProt P07384); experiment: Inhibition of calpain I (Suc-Leu-Tyr-AMC hydrolysis); format: biochemical
T1 construct: Calpain I was purified from human erythrocytes; from tissue; host or cells: human erythrocytes
T1 sequence (P07384 1-714): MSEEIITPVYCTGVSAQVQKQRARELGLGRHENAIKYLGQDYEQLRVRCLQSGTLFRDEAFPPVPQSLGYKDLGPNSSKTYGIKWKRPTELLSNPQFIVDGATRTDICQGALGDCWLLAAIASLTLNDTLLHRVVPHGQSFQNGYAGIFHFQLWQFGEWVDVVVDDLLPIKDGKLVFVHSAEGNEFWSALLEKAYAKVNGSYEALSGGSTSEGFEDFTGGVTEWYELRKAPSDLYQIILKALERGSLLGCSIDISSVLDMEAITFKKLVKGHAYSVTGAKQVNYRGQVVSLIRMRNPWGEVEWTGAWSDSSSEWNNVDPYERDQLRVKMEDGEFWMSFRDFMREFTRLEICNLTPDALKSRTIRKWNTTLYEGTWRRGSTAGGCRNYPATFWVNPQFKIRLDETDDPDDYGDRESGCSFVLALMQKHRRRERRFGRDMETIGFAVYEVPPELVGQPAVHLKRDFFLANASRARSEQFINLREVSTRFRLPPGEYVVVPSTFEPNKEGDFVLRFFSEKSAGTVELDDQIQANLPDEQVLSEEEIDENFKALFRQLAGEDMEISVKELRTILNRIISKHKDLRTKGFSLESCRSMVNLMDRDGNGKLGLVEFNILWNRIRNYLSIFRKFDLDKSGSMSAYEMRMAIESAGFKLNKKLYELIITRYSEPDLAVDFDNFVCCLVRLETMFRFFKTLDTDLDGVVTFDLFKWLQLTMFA
T1 sequence (P04632 1-268 partner): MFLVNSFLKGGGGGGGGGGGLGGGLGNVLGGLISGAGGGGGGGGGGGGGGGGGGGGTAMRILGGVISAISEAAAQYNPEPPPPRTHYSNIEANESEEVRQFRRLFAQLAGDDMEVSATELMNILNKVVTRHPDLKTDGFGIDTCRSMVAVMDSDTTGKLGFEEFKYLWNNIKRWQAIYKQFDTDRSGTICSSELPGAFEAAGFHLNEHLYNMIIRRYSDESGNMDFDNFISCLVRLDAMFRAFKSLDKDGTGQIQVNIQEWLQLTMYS
Procedure: Materials and Methods. HEPES, heparin, and A23187 were obtained from Calbiochem. Suc-Leu-Tyr-AMC and chromogenic substrates were obtained from Sigma. Calpain I was purified from human erythrocytes according to the method of Kitahara (Kitahara et al., J. Biochem. 95, 1759-1766) omitting the Blue-Sepharose step. Calpain II from rabbit muscle and cathepsin B were purchased from Sigma. Papain was purchased from Calbiochem.
(§1) Assay of Inhibitory Potency. Peptide α-ketoamides were assayed as reversible enzyme inhibitors. Various concentrations of inhibitors in Me2 SO were added to the assay mixture which contained buffer and substrate. The reaction was started by the addition of the enzyme and the hydrolysis rates were followed spectrophotometrically or fluorimetrically.
Calpain I from human erythrocytes and calpain II from rabbit were assayed using Suc-Leu-Tyr-AMC [Sasaki et al., J. Biol. Chem. 259, 12489-12494 (1984); incorporated herein by reference], and the AMC (7-amino-4-methylcoumarin) release was followed fluorimetrically (excitation at 380 nm, and emmision at 460 nm). Calpains were assayed in 25 mM Tris pH=8.0, 10 mM CaCl2. Fluorescence was followed using a Gilson FL-1A fluorometer or a Perkin-Elmer 203 Fluorescence spectrometer. Cathepsin B was assayed in 20 mM sodium acetate pH=5.2, 0.5 mM dithiothreitol using Bz-Phe-Val-Arg-p-nitroanilide as substrate. Alternately, cathepsin B was assayed with Z-Arg-Arg-AFC [Barrett and Kirschke, Methods Enzymol. 80, 535-561 (1981); incorporated herein by reference], and the AFC (7-amino-4-trifluoromethylcoumarin) release was followed fluorimetrically (excitation at 400 nm and emmision at 505 nm). Papain was assayed in 100 mM KPO4, 1 mM EDTA, 2.5 mM cysteine pH=6.0 using Bz-Arg-AMC or Bz-Arg-NA [Kanaoka et al., Chem. Plmrm. Bull. 25, 3126-3128 (1977); incorporated herein by reference] as a substrate. The AMC (7-amino-4-methylcoumarin) release was followed fluorimetrically (excitation at 380 nm, and emmision at 460 nm). Enzymatic hydrolysis rates were measured at various substrate and inhibitor concentrations, and KI values were determined by either Lineweaver-Burk plots or Dixon plots.
(§2) A 0.1M Hepes, 0.5M NaCl, pH 7.5 buffer was utilized for human leukocyte elastase (HLE), porcine pancreatic elastase (PPE), chymotrypsin and cathepsin G. A 0.1 Hepes, 0.01M CaCl2, pH 7.5 buffer was utilized for trypsin, plasmin, and coagulation enzymes. A 50 mM Tris-HCl, 2 mM EDTA, 5 mM cysteine, pH 7.5 was used as a buffer for papain. A 88 mM KH2 PO4, 12 mM Na2 HPO4, 1.33 mM EDTA, 2.7 mM cysteine, pH 6.0 solution was used as a buffer for cathepsin B. A 20 mM Hepes, 10 mM CaCl2, 10 mM mercatoethanol, pH 7.2 buffer was utilized for calpain I and calpain II.

[2] = biological target: chymotrypsin (Bos taurus, UniProt P00766, DEL14-15/DEL147-148); experiment: Inhibition of chymotrypsin (Suc-Val-Pro-Phe-NA hydrolysis); format: biochemical, bovine
Procedure: as §1, §2
HLE and PPE were assayed with MeO-Suc-Ala-Ala-Pro-Val-NA and Suc-Ala-Ala-Ala-NA, respectively [Nakajima et al., J. Biol. Chem. 254, 4027-4032 (1979); incorporated herein by reference]. Human leukocyte cathepsin G and chymotrypsin Aα were assayed with Suc-Val-Pro-Phe-NA [Tanaka et al., Biochemistry 24, 2040-2047 (1985); incorporated herein by reference]. The hydrolysis of peptide 4-nitroanilides was measured at 410 nm [ε410 =8800 M^-1 cm^-1; Erlanger et al., Arch. Biochem. Biophys. 95, pp 271-278 (1961); incorporated herein by reference]. Trypsin, thrombin, human plasma kallikrein, porcine pancreatic kallikrein, human factor XIa, and human plasmin were assayed with Z-Arg-SBzl or Z-Gly-Arg-SBu-i [McRae et al., Biochemistry 20, 7196-7206 (1981); incorporated herein by reference]. All peptide thioester hydrolysis rates were measured with assay mixtures containing 4,4'-dithiodipyridine [ε324 =19800 M^-1 cm^-1; Grasetti & Murray, Arch. Biochem. Biophys. 119, 41-49 (1967); incorporated herein by reference].

| SMILES | Ki [1] | better inhibitor of calpain I than Z-Leu-Phe-CONH-Et ([1]; relative to Z-Leu-Phe-CONH-Et) | Ki [2] |
| --- | --- | --- | --- |
| CCNC(=O)C(=O)[C@H](CC)NC(=O)[C@H](CC(C)C)NC(=O)OCc1ccccc1 [Z--Leu--Abu--CONH--Et, Z-Leu-Abu-CONH-Et] | 0.5 µM | 14 fold | > 150 µM |
| CCCCNC(=O)C(=O)C(CC)NC(=O)C(CC(C)C)NC(=O)OCc1ccccc1 (stereo not drawn) [Z--Leu--Abu--CONH--nBu, Z-Leu-Abu-CONH-nBu] | 0.2 µM | – | > 300 µM |
| CCNC(=O)C(=O)[C@H](Cc1ccccc1)NC(=O)[C@H](CC(C)C)NC(=O)OCc1ccccc1 [Z--Leu--Phe--CONH--Et, Z-Leu-Phe-CONH-Et] | 7 µM | – | 73 µM |
| CCCNC(=O)C(=O)C(Cc1ccccc1)NC(=O)C(CC(C)C)NC(=O)OCc1ccccc1 (stereo not drawn) [Z--Leu--Phe--CONH--nPr, Z-Leu-Phe-CONH-nPr] | 15 µM | – | 18 µM |
